Results reported in patent publication US12201641B2, “Compositions comprising Withania Somnifera extract for mammalian consumption” (SpecNova LLC, priority 2021, dated 2025).

Experiment: in vitro
Details: human, Caco-2, pH 7.4, Caco-2 Permeability (Papp) (A→B); for Papp A→B at 120 min, 1 μg/mL: compound alone, 1 μg/mL in HBSS buffer, pH 7.4, 120 min
Method: The Caco-2 permeability of two Withania somnifera extracts prepared by the claimed method of the present application (EXT001 and EXT002) and one Withania somnifera extract prepared using an alternative method (ALT001) were measured for comparison. Caco-2 cells (ATCC HTB-37) were grown on 24 well Transwell plates for 21 days. as per internal protocol number MET-TDDC-011. On the day of experiment the transepithelial electrical resistance (TEER) was measured across the monolayer and wells with TEER greater than 200 ohm*cm^2 were used for the permeability assessment. Incubation buffer consisted of Hanks balanced salt solution (HBSS) without CaCl2 and MgCl2, adjusted to pH 7.4, for both the donor, and the receiver. […] Lucifer yellow was used as zero permeability reference to check membrane integrity.
The compound solutions were prepared in HBSS buffer (pH 7.4) at a concentration of 1 μg/mL for permeability assessment. 5 mg each of Withania somnifera extracts EXT002 and EXT001 were added to 5 mL of HBSS buffer and vortexed for 2 hours followed by filtration through 0.22 μm syringe filter. These solutions were used for permeability determination. […] The methanolic extract was filtered through 0.22 μm filter. This extract was concentrated to 1 mL by passing nitrogen gas at 40° C. for 1 hr. Then 20 μL of this extract was spiked in 2 mL of HBSS buffer and filtered through 0.22 μm filter. This solution was used for the permeability study.
The permeability assay was performed in triplicate for each compound or product. Prior to the permeability assay, the transwells were washed with in pre-warmed HBSS buffer. The medium in the insert was aspirated and then the transwells were transferred to a 24-well plate with blank HBSS buffer (600 μL) in each well, and compound solution (102.5 μL, of which 2.5 μL was sampled immediately as the zero-minute donor) was added to each insert. Receiver samples (25 μL) were collected at 60, and 120 minutes, and replaced with an equal volume of fresh pre-warmed receiver buffer (at 60 minutes). The donor side was sampled (2.5 μL) at 0 and 120 minutes. The assay was conducted at 37° C. in a humidified CO2 incubator.
For analysis, any necessary dilutions of samples were performed with HBSS, pH 7.4. 25 μL of sample was mixed with 100 μL of acetonitrile with 25 ng/mL of mitragynine internal standard (IS), and then mixed and filtered through 0.4 μm filter plate to by centrifugation for 5 minutes at 2,000 rpm to a polypropylene 96-well plate for analysis. The samples were assayed by LC-MS/MS method.
The apparent permeability coefficient (Papp) and recovery were calculated as follows: […]
Where, VA is the volume of the acceptor compartment; A is the diffusional area of the membrane (0.33 cm^2); T is the length of study; [Drug]ini,donor is the donor compound amount at 0 minute; [Drug]acceptor is the acceptor compound amount at 120 minute. The compounds with permeability above 5×10^−6 cm/s will be considered high permeability compounds while those with permeability below 5×10^−6 cm/s will be considered low permeability compounds.

Row | Papp A→B at 120 min, 5 μg/mL | SMILES | Papp A→B at 120 min, 1 μg/mL
1 | 4.2 ± 1.79 ×10⁻⁶ cm/s | NS(=O)(=O)c1cc2c(cc1Cl)N=CNS2(=O)=O [Chlorothiazide, reference compound] | –
2 | – | CC1=C(CO)C(=O)O[C@@H]([C@@H](C)[C@H]2CC[C@H]3[C@@H]4C[C@H]5O[C@]56[C@@H](O)C=CC(=O)[C@]6(C)[C@H]4CC[C@]23C)C1 [Withaferin A, withaferin A] | 4.55 ± 0.81 ×10⁻⁶ cm/s
3 | – | CC1=C(C)C(=O)O[C@@H]([C@](C)(O)[C@H]2CC[C@H]3[C@@H]4[C@@H]5O[C@@H]5[C@@]5(O)CC=CC(=O)[C@]5(C)[C@H]4CC[C@]23C)C1 [Withanolide A, withanolide A] | 3.23 ± 0.5 ×10⁻⁶ cm/s
4 | – | CC1=C(CO)C(=O)O[C@@H]([C@@H](C)[C@H]2CC[C@H]3[C@@H]4CC=C5C[C@@H](O[C@@H]6O[C@H](CO[C@@H]7O[C@H](CO)[C@@H](O)[C@H](O)[C@H]7O)[C@@H](O)[C@H](O)[C@H]6O)C[C@H](O)[C@]5(C)[C@H]4CC[C@]23C)C1 [Withanoside IV, withanoside IV] | 5.42 ± 0.69 ×10⁻⁶ cm/s
5 | – | CC1=C(C)C(=O)O[C@@H]([C@@H](C)[C@H]2CC[C@H]3[C@@H]4CC=C5C[C@@H](O[C@@H]6O[C@H](CO[C@@H]7O[C@H](CO)[C@@H](O)[C@H](O)[C@H]7O)[C@@H](O)[C@H](O)[C@H]6O)C[C@H](O)[C@]5(C)[C@H]4CC[C@]23C)C1 [Withanolside V, withanoside V] | 4.03 ± 0.87 ×10⁻⁶ cm/s
